# Where two headings read alike, the source gives them in different places.
# Key:
# [1] = biological target: T1, human bradykinin 1 receptor (B1R) (Homo sapiens, UniProt P46663); test: Functional investigation on the human bradykinin 1 receptor (B1R), Ca2+ FLIPR assay in CHO K1 hB1R cells; assay type: cell-based; conditions: CHO-K1, B1R antagonism human, test substance 10 μM, read-out: B1R Ant. h [10 μM] % Inhibition
# T1 construct: expressed in transfected cells; host or cells: CHO K1 cells
# T1 sequence (P46663 1-353): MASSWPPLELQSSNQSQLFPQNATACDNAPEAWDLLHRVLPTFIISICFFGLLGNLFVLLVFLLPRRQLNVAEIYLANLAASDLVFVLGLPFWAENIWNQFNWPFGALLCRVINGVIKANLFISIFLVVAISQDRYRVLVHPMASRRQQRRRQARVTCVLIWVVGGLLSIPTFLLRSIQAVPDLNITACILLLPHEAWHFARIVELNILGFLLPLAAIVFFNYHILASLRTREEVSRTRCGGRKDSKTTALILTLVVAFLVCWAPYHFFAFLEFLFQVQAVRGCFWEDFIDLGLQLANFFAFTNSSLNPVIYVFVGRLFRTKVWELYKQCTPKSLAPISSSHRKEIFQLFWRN
# How it was run: (§1)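 Peak Ca2+-dependent fluorescence in B1R-transfected CHO K1 cells measures antagonism of an EC80 agonist challenge given 10-20 min after compound. Agonist is Lys-Des-Arg9-bradykinin for human, Des-Arg9-bradykinin for rat receptor.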
# human μ opiate receptor = biological target: T2, human μ opiate receptor (Homo sapiens, UniProt P35372); test: Affinity for the human μ opiate receptor ([3H]-naloxone displacement, CHO-K1 receptor membrane preparation, SPA); assay type: binding; conditions: 1.5 h, test concentration 1 μM
# T2 construct: purchased PerkinElmer Life Sciences, Zaventem, Belgium RB-HOM; host or cells: CHO-K1 cells (membrane preparation)
# T2 sequence (P35372 whole entry): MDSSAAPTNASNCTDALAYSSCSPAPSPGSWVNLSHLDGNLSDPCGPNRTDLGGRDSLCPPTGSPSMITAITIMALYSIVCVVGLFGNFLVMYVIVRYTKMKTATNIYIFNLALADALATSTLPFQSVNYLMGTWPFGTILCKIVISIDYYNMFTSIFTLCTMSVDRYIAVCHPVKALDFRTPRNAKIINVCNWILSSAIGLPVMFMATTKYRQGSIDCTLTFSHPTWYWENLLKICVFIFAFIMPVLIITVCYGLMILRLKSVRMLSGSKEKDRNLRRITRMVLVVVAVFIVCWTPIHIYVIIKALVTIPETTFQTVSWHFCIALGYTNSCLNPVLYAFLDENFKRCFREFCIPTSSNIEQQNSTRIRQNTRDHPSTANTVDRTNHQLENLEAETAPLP
# How it was run: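 At 1 μmol/l, compounds were scored for % displacement of 1 nmol/l [3H]-naloxone from CHO-K1-expressed human μ opiate receptor in a homogeneous SPA format (90 min, room temperature).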
# [2] = biological target: T3, bradykinin 1 receptor (B1R) of the rat (Rattus norvegicus, UniProt P97583); test: Functional investigation on the rat bradykinin 1 receptor (B1R), Ca2+ FLIPR assay in CHO K1 rB1R cells; assay type: cell-based; conditions: CHO-K1, B1R antagonism rat, test substance 10 μM, read-out: B1R Ant. r [10 μM] % Inhibition
# T3 construct: expressed in transfected cells; host or cells: CHO K1 cells
# T3 sequence (P97583 1-337): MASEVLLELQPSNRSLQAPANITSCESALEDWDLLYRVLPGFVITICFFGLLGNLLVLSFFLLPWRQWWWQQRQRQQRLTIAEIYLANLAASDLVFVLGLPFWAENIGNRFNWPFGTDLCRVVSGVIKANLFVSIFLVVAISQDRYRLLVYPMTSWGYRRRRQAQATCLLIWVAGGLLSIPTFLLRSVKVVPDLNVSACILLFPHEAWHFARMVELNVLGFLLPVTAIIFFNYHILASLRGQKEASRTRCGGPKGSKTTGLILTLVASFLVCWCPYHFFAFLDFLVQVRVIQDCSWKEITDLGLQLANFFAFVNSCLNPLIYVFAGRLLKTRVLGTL
# How it was run: as §1
# [3] = Table 3, to be read in the same way as Table 1, read-out: μ
# [4] = % inhibition compared with the maximum achievable inhibition
SMILES,"inhibition at 10 µM ([1]; Ca2+ FLIPR, CHO K1 hB1R cells) [%]",inhibition at 1 µM (human μ opiate receptor; [3]) [%],"inhibition at 10 µM ([2]; Ca2+ FLIPR, CHO K1 rB1R cells) [%]","inhibition at 10 µM [1, 4] [%]","inhibition at 10 µM [2, 4] [%]","inhibition at 1 µM (human μ opiate receptor; Table 2, read-out: μ receptor) [%]"
"COc1cc(C)c(S(=O)(=O)N2CCC(OCC(=O)NCC3CCC(C(CCc4ccccc4)N4CCOCC4)CC3)C2)c(C)c1 (stereo not drawn) [Example 725, 2-(1-(4-methoxy-2,6-dimethylphenylsulfonyl)pyrrolidin-3-yloxy)-N-((4-(1-morpholino-3-phenylpropyl)cyclohexyl)methyl)acetamide]",96,10,63,–,–,–
"COc1cc(C)c(S(=O)(=O)N2CCCCC2COCC(=O)N2CCC(C(c3cccc(F)c3)N3CCN(C)CC3)CC2)c(C)c1 (stereo not drawn) [Example 800, 1-(4-((3-fluorophenyl)(4-methylpiperazin-1-yl)methyl)piperidin-1-yl)-2-((1-(4-methoxy-2,6-dimethylphenylsulfonyl)piperidin-2-yl)methoxy)ethanone]",–,7,–,108,97,–
"COc1cc(C)c(S(=O)(=O)N2CCCC(OCC(=O)NCC3CCC(C(c4ccccc4)N4CCCC4)CC3)C2)c(C)c1 (stereo not drawn) [Example 648, 2-(1-(4-methoxy-2,6-dimethylphenylsulfonyl)piperidin-3-yloxy)-N-((4-(phenyl(pyrrolidin-1-yl)methyl)cyclohexyl)methyl)acetamide]",95,95,98,–,–,–
"CN(CCOCC(=O)NCC1CCC(C(c2ccccc2)N2CCCC2)CC1)S(=O)(=O)c1ccc(Cl)cc1Cl (stereo not drawn) [Example 641, 2-(2-(2,4-dichloro-N-methylphenylsulfonamido)ethoxy)-N-((4-(phenyl(pyrrolidin-1-yl)methyl)cyclohexyl)methyl)acetamide]",96,66,45,–,–,–
"COc1cc(C)c(S(=O)(=O)N2CCCC(OCC(=O)NCC3CCC(C(c4ccccc4)N4CCOCC4)CC3)C2)c(C)c1 (stereo not drawn) [Example 730, 2-(1-(4-methoxy-2,6-dimethylphenylsulfonyl)piperidin-3-yloxy)-N-((4-(morpholino(phenyl)methyl)cyclohexyl)methyl)acetamide]",46,11,38,–,–,–
"COc1cc(C)c(S(=O)(=O)N2CCCCC2COCC(=O)N2CCC(C(Cc3ccccc3)N3CCN(C)CC3)CC2)c(C)c1 (stereo not drawn) [Example 802, 2-((1-(4-methoxy-2,6-dimethylphenylsulfonyl)piperidin-2-yl)methoxy)-1-(4-(1-(4-methylpiperazin-1-yl)-2-phenylethyl)piperidin-1-yl)ethanone]",–,27,–,106,97,–
"COc1cc(C)c(S(=O)(=O)N2CCCCC2COCC(=O)N2CCC(C(CCc3ccccc3)N3CCN(C)CC3)CC2)c(C)c1 (stereo not drawn) [Example 806, 2-((1-(4-methoxy-2,6-dimethylphenylsulfonyl)piperidin-2-yl)methoxy)-1-(4-(1-(4-methylpiperazin-1-yl)-3-phenylpropyl)piperidin-1-yl)ethanone]",–,12,–,109,99,–
"O=C(COC1CCN(S(=O)(=O)c2c(Cl)cc(Cl)cc2Cl)C1)NC1CCC(C(CCc2ccccc2)N2CCCCC2)CC1 (stereo not drawn) [Example 667, N-(4-(3-phenyl-1-(piperidin-1-yl)propyl)cyclohexyl)-2-(1-(2,4,6-trichlorophenylsulfonyl)pyrrolidin-3-yloxy)acetamide]",57,32,17,–,–,–
"CN(C)C(Cc1ccccc1)C1CCC(NC(=O)COCCN(C)S(=O)(=O)c2c(Cl)cc(Cl)cc2Cl)CC1 (stereo not drawn) [Example 616, N-[4-(1-dimethylamino-2-phenylethyl)-cyclohexyl]-2-{2-[methyl-(2,4,6-trichlorobenzenesulfonyl)-amino]-ethoxy}-acetamide]",100,–,43,–,–,64
"COc1cc(C)c(S(=O)(=O)N2CCC(OCC(=O)NC3CCC(C(c4ccccc4)N4CCN(C)CC4)CC3)C2)c(C)c1 (stereo not drawn) [Example 688, 2-(1-(4-methoxy-2,6-dimethylphenylsulfonyl)pyrrolidin-3-yloxy)-N-(4-((4-methylpiperazin-1-yl)(phenyl)methyl)cyclohexyl)acetamide]",103,20,94,–,–,–
"COc1cc(C)c(S(=O)(=O)N(C)CCOCC(=O)NC2CCC(C(c3ccccc3)N3CCOCC3)CC2)c(C)c1C (stereo not drawn) [Example 619, 2-{2-[(4-methoxy-2,3,6-trimethylbenzenesulfonyl)-methylamino]-ethoxy}-N-[4-(morpholin-4-yl-phenylmethyl)-cyclohexyl]-acetamide]",56,–,12,–,–,-11
"COc1cc(C)c(S(=O)(=O)N2CCCC(OCC(=O)NCC3CCC(C(CCc4ccccc4)N4CCOCC4)CC3)C2)c(C)c1 (stereo not drawn) [Example 748, 2-(1-(4-methoxy-2,6-dimethylphenylsulfonyl)piperidin-3-yloxy)-N-((4-(1-morpholino-3-phenylpropyl)cyclohexyl)methyl)acetamide]",92,20,78,–,–,–
"CN(CCOCC(=O)NCC1CCC(C(c2ccccc2)N2CCOCC2)CC1)S(=O)(=O)c1c(Cl)cc(C(F)(F)F)cc1Cl (stereo not drawn) [Example 727, 2-(2-(2,6-dichloro-N-methyl-4-(trifluoromethyl)phenylsulfonamido)ethoxy)-N-((4-(morpholino(phenyl)methyl)cyclohexyl)methyl)acetamide]",16,10,29,–,–,–
"COc1cc(C)c(S(=O)(=O)N2CCCC2COCC(=O)NCC2CCC(C(c3ccccc3)N3CCOCC3)CC2)c(C)c1 (stereo not drawn) [Example 709, 2-((1-(4-methoxy-2,6-dimethylphenylsulfonyl)pyrrolidin-2-yl)methoxy)-N-((4-(morpholino(phenyl)methyl)cyclohexyl)methyl)acetamide]",82,8,104,–,–,–
"CN(CCOCC(=O)NC1CCC(C(c2ccccc2)N2CCOCC2)CC1)S(=O)(=O)c1c(Cl)cccc1Cl (stereo not drawn) [Example 683, 2-(2-(2,6-dichloro-N-methylphenylsulfonamido)ethoxy)-N-(4-(morpholino(phenyl)methyl)cyclohexyl)acetamide]",32,5,48,–,–,–
"CN(CCOCC(=O)NC1CCC(C(CCc2ccccc2)N2CCCCC2)CC1)S(=O)(=O)c1c(Cl)cc(Cl)cc1Cl (stereo not drawn) [Example 637, N-(4-(3-phenyl-1-(piperidin-1-yl)propyl)cyclohexyl)-2-(2-(2,4,6-trichloro-N-methylphenylsulfonamido)ethoxy)acetamide]",85,35,45,–,–,–
"COc1cc(C)c(S(=O)(=O)N2CCCC2COCC(=O)NCC2CCC(C(CCc3ccccc3)N3CCOCC3)CC2)c(C)c1 (stereo not drawn) [Example 749, 2-((1-(4-methoxy-2,6-dimethylphenylsulfonyl)pyrrolidin-2-yl)methoxy)-N-((4-(1-morpholino-3-phenylpropyl)cyclohexyl)methyl)acetamide]",103,12,109,–,–,–
"CN(CCOCC(=O)NC1CCC(C(CCc2ccccc2)N2CCCCC2)CC1)S(=O)(=O)c1c(Cl)cccc1Cl (stereo not drawn) [Example 665, 2-(2-(2,6-dichloro-N-methylphenylsulfonamido)ethoxy)-N-(4-(3-phenyl-1-(piperidin-1-yl)propyl)cyclohexyl)acetamide]",94,18,28,–,–,–

# — patent US8106055B2, “Substituted amide compounds” (Gruenenthal GmbH, priority 2007, dated 2012)
